Test results: PubChem BioAssay AID250 (DTP/NCI, 2004)
Where “and” joins values, the source holds several entries; their conditions need not be identical. Identical values can stand only once. Inconclusive results and toxic doses are left out.

Test system: BDF1 mice, L1210 leukemia sc, survival T/C
Assay: NCI In Vivo Anticancer Drug Screen. Data for tumor model L1210 Leukemia (subcutaneous) in B6D2F1 (BDF1) mice
Details: higher = longer survival
Procedure, shortened: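 Mice carrying transplanted tumors received test compounds, and survival or tumor size was measured. Values are the treated-group measurement (T) divided by that of the vehicle-treated control group (C).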

[1] = endpoint: median survival time, dose: 39.0 mg/kg/injection, schedule: Q01DX Z (sc), vehicle: methylcellulose (MC)
[2] = endpoint: median survival time, dose: 65.0 mg/kg/injection, schedule: Q01DX Z (sc), vehicle: methylcellulose (MC)

For `COc1ccc2nc3cc(Cl)ccc3c(NCCN(CCCl)CCCl)c2c1`, the T/C (endpoint: median survival time, dose: 0.65 mg/kg/injection, schedule: Q01DX Z (sc), vehicle: methylcellulose (MC)) was 105 % of control and the T/C [1] was 100 % of control.
For `C=C(C)c1ccc(/C=N/NC(N)=S)cc1`, the T/C [1] was 109 % of control, the T/C [2] was 109 % of control and the T/C (endpoint: median survival time, dose: 108.0 mg/kg/injection, schedule: Q01DX Z (sc), vehicle: methylcellulose (MC)) was 109 % of control. For the same compound, the T/C (endpoint: median survival time, dose: 180.0 mg/kg/injection, schedule: Q01DX Z (sc), vehicle: methylcellulose (MC)) was 109 % of control, the T/C (endpoint: median survival time, dose: 300.0 mg/kg/injection, schedule: Q01DX Z (sc), vehicle: methylcellulose (MC)) was 113 % of control and the T/C (endpoint: median survival time, dose: 500.0 mg/kg/injection, schedule: Q01DX Z (sc), vehicle: methylcellulose (MC)) was 109 % of control.
`CS(=O)(=O)OCCCCCCCCCOS(C)(=O)=O` was tested, and the T/C (endpoint: median survival time, dose: 47.0 mg/kg/injection, schedule: Q01DX Z (sc), vehicle: methylcellulose (MC)) was 105 % of control, the T/C (endpoint: median survival time, dose: 78.0 mg/kg/injection, schedule: Q01DX Z (sc), vehicle: methylcellulose (MC)) was 115 % of control and the T/C (endpoint: median survival time, dose: 216.0 mg/kg/injection, schedule: Q01DX Z (sc), vehicle: methylcellulose (MC)) was 160 % of control.
`CCCCC(=O)N(c1ccc(Nc2c3ccccc3nc3cc([N+](=O)[O-])ccc23)cc1)S(C)(=O)=O` was tested, and the T/C (endpoint: mean survival time, dose: 3.18 mg/kg/injection, schedule: Q01DX009 (sc), vehicle: saline) was 107 % of control, the T/C (endpoint: mean survival time, dose: 6.25 mg/kg/injection, schedule: Q01DX009 (sc), vehicle: saline) was 112 % of control and the T/C (endpoint: mean survival time, dose: 25.0 mg/kg/injection, schedule: Q01DX009 (sc), vehicle: saline) was 168 % of control.
`CC1(C)N=C(N)N=C(N)N1c1cccc(Br)c1` was tested, and the T/C (endpoint: median survival time, dose: 23.0 mg/kg/injection, schedule: Q01DX Z (sc), vehicle: saline) was 105 % of control, the T/C [1] was 112 % of control and the T/C (endpoint: median survival time, dose: 39.0 mg/kg/injection, schedule: Q01DX Z (sc), vehicle: saline) was 100 % of control and 122 % of control. For the same compound, the T/C [2] was 118 % of control, the T/C (endpoint: median survival time, dose: 65.0 mg/kg/injection, schedule: Q01DX Z (sc), vehicle: saline) was 110 % of control and 122 % of control and the T/C (endpoint: median survival time, dose: 108.0 mg/kg/injection, schedule: Q01DX Z (sc), vehicle: saline) was 122 % of control.
For `CN(Cc1cnc2nc(N)nc(N)c2n1)c1cccc(C(=O)NC(CCC(=O)O)C(=O)O)c1` (stereo unspecified), the T/C (endpoint: mean survival time, dose: 1.0 mg/kg/injection, schedule: Q01DX009 (ip), vehicle: sodium bicarbonate) was 111 % of control, the T/C (endpoint: mean survival time, dose: 2.0 mg/kg/injection, schedule: Q01DX009 (ip), vehicle: sodium bicarbonate) was 107 % of control and the T/C (endpoint: mean survival time, dose: 4.0 mg/kg/injection, schedule: Q01DX009 (ip), vehicle: sodium bicarbonate) was 111 % of control. For the same compound, the T/C (endpoint: mean survival time, dose: 4.0 mg/kg/injection, schedule: Q04DX003 (ip), vehicle: sodium bicarbonate) was 113 % of control, the T/C (endpoint: mean survival time, dose: 8.0 mg/kg/injection, schedule: Q01DX009 (ip), vehicle: sodium bicarbonate) was 111 % of control and the T/C (endpoint: mean survival time, dose: 8.0 mg/kg/injection, schedule: Q04DX003 (ip), vehicle: sodium bicarbonate) was 111 % of control. For the same compound, the T/C (endpoint: mean survival time, dose: 16.0 mg/kg/injection, schedule: Q01DX009 (ip), vehicle: sodium bicarbonate) was 114 % of control, the T/C (endpoint: mean survival time, dose: 16.0 mg/kg/injection, schedule: Q04DX003 (ip), vehicle: sodium bicarbonate) was 108 % of control and the T/C (endpoint: mean survival time, dose: 32.0 mg/kg/injection, schedule: Q04DX003 (ip), vehicle: sodium bicarbonate) was 108 % of control. The T/C (endpoint: mean survival time, dose: 64.0 mg/kg/injection, schedule: Q04DX003 (ip), vehicle: sodium bicarbonate) was 119 % of control.
In the case of `COC(=N)N`, the T/C (endpoint: median survival time, dose: 1.8 mg/kg/injection, schedule: Q01DX Z (sc), vehicle: methylcellulose (MC)) is reported as 100 % of control and the T/C (endpoint: median survival time, dose: 3.0 mg/kg/injection, schedule: Q01DX Z (sc), vehicle: methylcellulose (MC)) is reported as 100 % of control.
`CNNCc1ccc(C(=O)NC(C)C)cc1` was tested, and the T/C (endpoint: median survival time, dose: 65.0 mg/kg/injection, schedule: Q01DX009 (sc), vehicle: saline) was 116 % of control and 122 % of control, the T/C (endpoint: median survival time, dose: 65.0 mg/kg/injection, schedule: Q01DX014 (sc), vehicle: saline) was 119 % of control and 122 % of control and the T/C (endpoint: median survival time, dose: 65.0 mg/kg/injection, schedule: Q01DX015 (sc), vehicle: saline) was 122 % of control. The T/C (endpoint: median survival time, dose: 108.0 mg/kg/injection, schedule: Q01DX014 (sc), vehicle: saline) was 111 % of control, the T/C (endpoint: median survival time, dose: 108.0 mg/kg/injection, schedule: Q01DX015 (sc), vehicle: saline) was 122 % of control and 123 % of control and the T/C (endpoint: median survival time, dose: 180.0 mg/kg/injection, schedule: Q01DX015 (sc), vehicle: saline) was 150 % of control. For the same compound, the T/C (endpoint: median survival time, dose: 300.0 mg/kg/injection, schedule: Q01DX015 (sc), vehicle: saline) was 163 % of control and 166 % of control, the T/C (endpoint: median survival time, dose: 500.0 mg/kg/injection, schedule: Q01DX014 (sc), vehicle: saline) was 122 % of control and the T/C (endpoint: median survival time, dose: 500.0 mg/kg/injection, schedule: Q01DX015 (sc), vehicle: saline) was 116 % of control and 117 % of control.
